According to article PMC12323867 (RSC Medicinal Chemistry, 2025):
Entries after “also recorded” stand apart in the source; their conditions may differ. Where two headings read alike, the source gives them in different places.

Legend:
H3K4me2 in HCT116 cells = assay: Histone methylation H3K4me2 by western blot; type: cell-based, human; conditions: HCT116, TCP series conditions (0.2–20 μM)
Method: We next screened 25–33 and SP2509 over a concentration range of 0.1–10 μM in HCT116 cells (obtained from ATCC, CCL-247) and determined LSD1 abundance after 24 hours with an antibody for LSD1 (Fig. S4 ^†). […] Using the same conditions, we also determined the effects of SP2509, 25, 27, 28, 30 and 31 on histone H3 lysine 4 dimethyl (H3K4me2) a validated substrate for LSD1 using a specific antibody for H3K4me2 (Fig. S4 ^†).
Compounds 39–41, 49, 52 and 54 were screened for LSD1 degradation in HCT116 cells using a specific antibody for LSD1. This was performed side-by-side with TCP. Compounds were tested at concentration ranges of 0.2–20 μM and LSD1 abundance was quantified at 24 hours (Fig. S5 ^†). 49, 52 and 54 were also evaluated at 48 and 72 hours. […] We also determined the effects of these compounds on the histone methyl marker H3K4me2 (Fig. S5 and S6 ^†).
(§1) 2.5 Protocols for LSD1 degradation and histone methylation in HCT116 cells HCT116 human colon carcinoma cells were grown in Dulbecco’s Modified Eagle Medium (DMEM) supplemented with Fetal Bovine Serum (FBS, 10% final concentration) and 1x glutamine/penicillin/streptomycin. Cells were incubated at 37 °C and 5% CO2. Cells were treated with compounds (0.1-20 µM) with a final DMSO volume of 0.04%. DMSO (0.04%) treated and untreated (WT) cells were included as controls.
(§2) HCT116 cells were seeded into six well plates (400000 cells per well) and after requisite compound treatment time (24h, 48h, 72h) cells were harvested and either snap-frozen in liquid nitrogen or lysed in lysis buffer (50mM Tris-HCl, 150 mM NaCl, 0.5% NP-40, 0.5% Triton X-100 + protease inhibitor) on ice for 30 mins. This was centrifuged (15000 rpm, 4 °C, 15 mins) and the supernatant collected.
(§3) H2SO4 (0.4 M, equal volume) was added to the pellets for histone extraction and the tubes incubated overnight at 4 °C. Following this, the histone extract was centrifuged (15000 rpm, 4 °C, 15 mins) and the supernatant collected. Protein concentrations of whole cell extract were quantified via Bradford Assay using BIO-RAD Protein Assay Dye Reagent Concentrate.
(§4) Western blots were run on NuPAGE 4-12% Bis-Tris gels, with 30 µg of protein (whole cell extract) or an equivalent volume of histone extract loaded per lane, with all extracts dyed with 4x NuPAGE LDS Sample Buffer. PageRuler Plus Prestained Ladder was used as a reference. Gel electrophoresis was carried out at 140 V for 60-90 mins, following which the proteins were transferred onto nitrocellulose membrane at 30 V for 60 mins. Membranes were blocked in LI-COR Intercept Blocking Buffer overnight at RT on a roller, following which the membrane was probed with primary antibodies for 1 h at RT. The membrane was washed with PBS + 0.1% Tween (3 x 10 mins), then incubated with secondary antibodies for 50 mins at RT. The membrane was washed again (PBS Tween 2 x 10 mins, PBS 1 x 10 mins) following which the blot was visualised with the Odyssey Infrared Imaging System. Image processing and quantification was performed with ImageStudio Lite. […]
(§5) a-tubulin (mouse) – Sigma, t5168 (1:10000 dilution)

HCT116 cells = assay: CTG cell viability assay; type: cell-based, human; conditions: HCT116, CellTiter-Glo, 0.0041-10 uM, 24-48 h (Fig. S3)
Method: 2.4. CTG cell viability assays
HCT116 cells were seeded onto 96-well plates at a density of 2000 cells/well and allowed 24 h to settle. Cells were then treated with LSD1 inhibitors (0.0041-10 uM) alongside WT, DMSO and cell free control wells for 24-48 h. After this time, plates were equilibrated to RT for 30 mins, then CellTiter-Glo (Promega, G9242) reagent (5 uL/100 uL media) was added. Cells were lysed on an orbital shaker for 10 mins, then incubated at RT for 2 mins to allow luminescence to stabilise, following which luminescence was recorded on a HiDEX Sense microplate reader. To obtained plotted values, luminescence of each tested well was divided by that of the DMSO control, which were plotted against concentration using GraphPad Prism. […] was applied to obtain apparent IC50 values where possible.
Figure S3. Cell viability dose response curves
(1 picture or pasted object on this page, not shown here)

LSD1 = tested on: LSD1; parameters: method as in PMID 38742921; conditions: cited from earlier work
[1] = target: T1, HDAC1-CoREST-LSD1 complex (Homo sapiens, UniProt O60341); assay: LSD1 HRP-coupled demethylase assay, TCP analogues; type: biochemical; conditions: for inhibition at 50 µM: read-out: LSD1 inhibition at 50 μM
T1 construct: full length native LSD1 (UniProt ID: O60341); made in house; host or cells: HEK 293F cells (co-transfection, pcDNA3 vectors)
Method: We then evaluated LSD1 inhibition in the LSD1-HDAC1-CoREST complex using the established horseradish peroxidase (HRP) assay.[8]
2. Supplementary Information: Biology
2.1. LSD-HDAC1-CoREST expression and purification
Lysis Buffer (Buffer A) Wash Buffer (Buffer B)
• 50 mM Tris/Cl pH 7.5 • 50 mM Tris/Cl pH 7.5
• 50 mM Potassium Acetate • 50 mM Potassium Acetate […]
Cleavage Buffer (Buffer C) Gel Filtration Buffer (Buffer D)
• 50 mM Tris/Cl pH 7.5 Filtered at vacuum.
• 50 mM Potassium Acetate • 50 mM Tris/Cl pH 7.5
• 5 % v/v Glycerol • 50 mM Potassium Acetate
• 0.5 mM tris(2- • 0.5 mM TCEP carboxyethyl)phosphine (TCEP)
The CoREST ternary complex was comprised of full length native LSD1 (UniProt ID: O60341), full length HDAC1 (UniProt ID: Q13547) and N-terminally truncated RCOR1 (86-485aa) (UniProt ID:
Q9UKL0). Protein constructs were cloned into pcDNA3 vector. The RCOR1 constructs contained an N-terminal (His)10(Flag)3 tag followed by a Tev protease cleavage site. The constructs for ternary complex were co-transfected into suspension-grow HEK 293F cells (Thermofisher Scientific) with polyethylenimine (PEI) (Sigma) and harvested after 48 hours. This section of the procedure was carried out as described previously in literature.11,12
Cell pellets from 1.2 L culture were defrosted, and buffer A (30 mL) was added. The solution was sonicated (Soniprep 150) in an beaker of ice using a 9 mm probe at 10 ampules; operated with 10 […]
Components and concentrations for the HRP-coupled demethylase assay […]
The assay components are shown at their final concentrations per well in the table above. CoREST complex (HDAC 1/RCOR1/LSD1) was added to the assay buffer alongside either DMSO or the relevant inhibitor at the desired concentration on black-walled 96 well plates. Alongside this was another control, with DMSO but no CoREST or inhibitor. Plates were spun to 3000 rpm between each addition of a reagent. Plates were incubated at 20 °C for 30 mins, following which HRP/Amplex Ultrared (1:1 mixture) and peptide was added. Plates were spun, then read on an PerkinElmer 2030 Explorer plate reader, with excitation of 530 nm and […] of 590 nm, with 7 readings taken over […]
Components, where bought in, are listed below:
HRP – Pierce™ Horseradish Peroxidase, Invitrogen
H3K4me2 peptide – Histone H3 dimethyl lysine-4 peptide, Enzo Life Sciences Amplex UltraRed, ThermoFisher Scientific
To the assay buffer was added HRP/AMP in each well to concentrations equal to those in above, following which hydrogen peroxide solution (diluted from 3% hydrogen peroxide solution into a 20 mM stock) was added, in a 1 in 3 dilution series with final concentrations starting from 3 mM.
Negative control wells contained either 100% buffer or as above with no hydrogen peroxide solution.

LSD1 in HCT116 cells = target: T2, LSD1 in HCT116 cells (Homo sapiens, UniProt O60341); assay: LSD1 degradation (LSD1 abundance) by western blot; type: cell-based
T2 construct: host or cells: HCT116
Method: Using the same conditions, we also determined the effects of SP2509, 25, 27, 28, 30 and 31 on histone H3 lysine 4 dimethyl (H3K4me2) a validated substrate for LSD1 using a specific antibody for H3K4me2 (Fig. S4 ^†).
Compounds were tested at concentration ranges of 0.2–20 μM and LSD1 abundance was quantified at 24 hours (Fig. S5 ^†). 49, 52 and 54 were also evaluated at 48 and 72 hours. […] We also determined the effects of these compounds on the histone methyl marker H3K4me2 (Fig. S5 and S6 ^†).
as §1, with “with compounds (0.1-20 µM) with a final DMSO volume of 0.04%. DMSO (0.04%) treated and untreated (WT) cells were included as controls.” left out
untreated (WT) cells were included as controls.
as §2
as §3, with “Concentrate. […]” for “Concentrate.”
as §4, with “or” for “Western blots were run on NuPAGE 4-12% Bis-Tris gels, with 30 µg of protein (whole cell extract) or”
as §5

[2] = complex 50 nM, mean ± SD from three replicates
[3] = HCT116, 0.2–20 μM, 24 hours, LSD1 antibody

Row | IC50 [1, 2] [nM] | inhibition at 50 µM ([1]; single concentration 50 μM, complex 50 nM, compared to no compound treatment control) [%] | LSD1 degradation (LSD1 in HCT116 cells; [3]) | LSD1 degradation (LSD1 in HCT116 cells; HCT116, 48 and 72 hours) | IC50 ([1]; complex 50 nM) [nM] | Structure (SMILES) | H3K4me2 histone methyl marker (H3K4me2 in HCT116 cells) | cytotoxic effects in cells (HCT116 cells) | ability to increase H3K4me2 on peptides and nucleosomes (LSD1) | inhibition at 50 µM [1] [%]
1 | – | – | – | – | – | N[C@@H]1C[C@H]1c1ccccc1 (racemic) [TCP, tranylcypromine] | neither did we observe changes; also recorded: did not increase H3K4me2 levels | not observed | increased H3K4me2 levels | –
2 | – | – | – | – | – | COc1ccc(-c2c(-c3ccc(C#N)c(F)c3)nc(N3CCC(N)CC3)n(C)c2=O)cc1F [CC-90011] | – | – | increased H3K4me2 levels | –
3 | – | – | – | – | – | N[C@H]1CC[C@H](N[C@@H]2C[C@H]2c2ccccc2)CC1 [ORY1001, reference compound] | neither did we observe changes; also recorded: did not increase H3K4me2 levels | not observed | – | 100
4 | 63 | 100 | no degradation | no degradation | – | Cc1ncsc1-c1ccc(CNC(=O)[C@@H]2C[C@@H](O)CN2C(=O)[C@@H](NC(=O)COCCOCCOCCNC(=O)c2ccc([C@@H]3C[C@H]3N)cc2)C(C)(C)C)cc1 [compound 49] | no changes | – | – | –
5 | 282 ± 40 | – | no degradation | no degradation | 280 | N[C@@H]1C[C@H]1c1ccc(C(=O)NCCc2ccc(OCCCCCCCCCCCC(=O)NCCNc3cccc4c3C(=O)N(C3CCC(=O)NC3=O)C4=O)cc2)cc1 (some centres unmarked) [compound 54] | no changes | – | – | –
